The text below walks through data of patent publication US20190358369A1, “Drug releasing coatings for medical devices and methods of making same” (BIOTRONIK AG, priority 2016, published 2019).

For data set [1], the target named is bovine serum albumin (BSA) (Bos taurus, UniProt P02769). The data set can be described thus: Albumin binding by ammonium sulfate precipitation and LCMS. Particulars: bovine serum albumin (BSA) solution, 10 uM drug, 1.4 mg/mL BSA in normal saline, 30 minutes ambient, supernatant, average of four separate days. It counts as in vitro ADME. The method, then:
Sirolimus-albumin binding has previously been reported. […] The drug spiked BSA solutions were mixed by inversion and allowed to equilibrate at ambient temperature for 30 minutes to allow drug binding to the albumin protein. 826 mg ammonium sulfate was next added to each sample and mixed by gentle inversion until the salt had completely dissolved and precipitate formed. Samples were then vortexed for 20 seconds then centrifuged for 6.5 minutes at 7200×g. To both supernatant and separated precipitate 0.750 mL methanol and 0.250 mL acetonitrile containing internal standard was added to each sample. Samples were tested for drug content by LCMS where the supernatant amount represents unbound drug and the precipitate amount the bound drug. Recovery verifiction tests were performed as above but using solutions of saline plus drug without BSA.
Values reported are the average of a separate test on each of four separate days.

For data set [2] the following is noted: Porcine Coronary Arteries, from US 2014/0046254, cited from earlier work.

Where two headings read alike, the source gives them in different places.

bovine serum albumin (BSA), sequence (P02769 25-607): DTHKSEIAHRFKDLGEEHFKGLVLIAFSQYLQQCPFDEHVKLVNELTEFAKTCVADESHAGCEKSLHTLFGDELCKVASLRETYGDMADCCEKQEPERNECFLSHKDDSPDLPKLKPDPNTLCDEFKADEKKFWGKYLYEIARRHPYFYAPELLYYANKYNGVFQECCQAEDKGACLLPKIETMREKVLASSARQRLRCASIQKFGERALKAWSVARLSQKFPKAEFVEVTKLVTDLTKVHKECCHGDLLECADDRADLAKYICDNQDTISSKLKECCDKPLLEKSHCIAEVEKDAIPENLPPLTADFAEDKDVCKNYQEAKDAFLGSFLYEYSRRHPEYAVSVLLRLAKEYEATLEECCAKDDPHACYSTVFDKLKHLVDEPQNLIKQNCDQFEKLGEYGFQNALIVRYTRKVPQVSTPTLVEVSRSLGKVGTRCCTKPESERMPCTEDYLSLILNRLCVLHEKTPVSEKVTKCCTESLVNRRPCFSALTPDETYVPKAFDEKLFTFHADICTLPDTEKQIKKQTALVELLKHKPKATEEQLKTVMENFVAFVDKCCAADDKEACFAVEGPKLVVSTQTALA

Consider `CO[C@H]1C[C@@H]2CC[C@@H](C)[C@@](O)(O2)C(=O)C(=O)N2CCCC[C@H]2C(=O)O[C@H]([C@H](C)C[C@@H]2CC[C@@H](O)[C@H](OC)C2)CC(=O)[C@H](C)/C=C(\C)[C@@H](O)[C@@H](OC)C(=O)[C@H](C)C[C@H](C)/C=C/C=C/C=C/1C` [Sirolimus], for which, in data set [1], the fraction unbound at 30 min, 10 uM came out at 0.062. For the molecule `CO[C@H]1C[C@@H]2CC[C@@H](C)[C@@](O)(O2)C(=O)C(=O)N2CCCC[C@H]2C(=O)O[C@H]([C@H](C)C[C@@H]2CC[C@@H](OCCO)[C@H](OC)C2)CC(=O)[C@H](C)/C=C(\C)[C@@H](O)[C@@H](OC)C(=O)[C@H](C)C[C@H](C)/C=C/C=C/C=C/1C` [US 2014/0046254 Everolimus, Everolimus], the “Normalized Uptake (ng drug/mg tissue/μg drug on balloon)” value in data set [2] (3 days) was 0.02 ng/mg/µg. As for `CO[C@H]1C[C@@H]2CC[C@@H](C)[C@@](O)(O2)C(=O)C(=O)N2CCCC[C@H]2C(=O)O[C@H]([C@H](C)C[C@@H]2CC[C@H](n3cnnn3)[C@H](OC)C2)CC(=O)[C@H](C)/C=C(\C)[C@@H](O)[C@@H](OC)C(=O)[C@H](C)C[C@H](C)/C=C/C=C/C=C/1C` [US 2014/0046254 Zotarolimus, Zotarolimus], the “Normalized Uptake (ng drug/mg tissue/μg drug on balloon)” value in data set [2] (7 days) is 0.04 ng/mg/µg.
